{
  "source": "patent US6887873B2",
  "about": "“Triazine derivatives and their application as antitelomerase agents” (Aventis Pharma S.A., priority 2001, dated 2005)",
  "key": {"A549 cells": {"system": "A549 cells", "assay": "Cytotoxic activity on human tumour line A549, neutral red, 96 hours", "type": "cell-based", "conditions": "Homo sapiens, A549, A549; read-out: Cytotox. A549 IC50", "method": "The cytotoxic biological activity on human tumour lines is determined according to the following experimental protocol:\nThe human cell lines A549 are obtained from ATCC (American Type Culture Collection, Rockville, USA). The A549 cells are cultured in a layer in a culture flask in RPMI 1640 medium containing L-glutamine at 2 mM, penicillin 200 U/ml, streptomycin 200 μg/ml and supplemented with 10% heat-inactivated foetal calf serum. The KB cells are cultured in a layer in a culture flask in Dulbelco's medium containing L-glutamine at 2 mM, penicillin 200 U/ml, streptomycin 200 μg/ml and supplemented with 10% heat-inactivated foetal calf serum.\nThe cells at the exponential growth phase are trypsinized, washed in 1×PBS and are inoculated in 96-well microplates (Costar) in an amount of 4×10^4 cells/ml for A549 and of 1.5×10^4 cells/ml (0.2 ml/well) and then incubated for 96 hours in the presence of variable concentrations of product to be studied (10, 1, 0.1 and 0.01 μM, each point in quadruplicate). 16 hours before the end of the incubation, 0.02% final of neutral red is added to each well. At the end of the incubation, the cells are washed with 1×PBS and lysed with 1% sodium lauryl sulphate. The cellular incorporation of the dye, which reflects cellular growth, is evaluated by spectro-photometry at a wavelength of 540 nm for each sample with the aid of a Dynatech MR5000 reading apparatus.\nFor each compound concentration tested, the results are expressed as percentage of inhibition of cellular growth and calculated from the untreated control and the culture medium free of cells (blank) according to the following formula: (compound value−blank value/cell control value−blank value)×100.\nThe concentration of compound inducing a 50% inhibition of growth (IC50) is determined with the aid of a semilogarithmic graphical representation of the inhibition values obtained as a function of each of the compound concentrations tested.\nA compound is considered to be active as cytotoxic agent if the concentration inhibiting the growth of the tumour cells tested by 50% is in particular less than 10 μM."}},
  "data": [
    {"smiles": "Cc1cc(N(C)C)c2cc(Nc3nc(Nc4ccc5nc(C)cc(N(C)C)c5c4)nc(N4CCN(C)CC4)n3)ccc2n1", "note": "[Example 20, 2,4-bis(4-dimethylamino-2-methylquinolin-6-yl)amino-6-(4-methylpiperazin-1-yl)-[1,3,5]triazine]", "values": [
      {"measurement": "IC50", "setting": "A549 cells", "result": 350, "unit": "nM"},
      {"measurement": "melting point", "result": "256 to 260", "unit": "°C"}
    ]}
  ]
}
